# In patent US11013673B2, “Cosmetic compositions containing quinones and their topical use on skin and hair” (Repairogen Corp, priority 2016, dated 2021):
# Experiments:
# [1] = tested on: primary human fibroblasts; test: cytotoxicity assay (Cell Titer96 Aqueous One) on fibroblasts; conditions: 24 h
# Procedure: Normal human dermal adult fibroblasts derived from a donor of were purchased from CELLnTec (Bern, Switzerland) and grown in DMEM supplemented with 10% FBS (Life Technologies, CA, USA). Fibroblasts cultures were maintained at 37° C. with 5% CO2 and ˜95% humidity.
# (§1) Cytotoxicity was evaluated using the Cell Titer96 Aqueous One (Promega, Wis., USA) basic test according to manufacturer's instructions. Cells were seeded at a density of 10,000 cells/well in a 96-well plate and cultured overnight. Treatments with seven doses of compounds were carried out for 24 hours, in triplicates. Colorimetric analysis was performed using an absorbance of 490 nm. Inhibition of viability of more than 20% of the control values was considered cytotoxic.
# The cytotoxicity assay on primary human fibroblasts from adult donor was performed after 24 h of culture in the presence of different concentrations of each compound, as indicated in FIG. 2B and Table 2.
# [2] = stability of active ingredient in cosmetic composition; conditions: 40° C., 50° C., −5° C.; two-, four-, six-, eight-, and 12-week time points
# Procedure: Two cosmetic compositions were prepared, one containing lapachol (denoted RGN 1538) and the other containing myrtucommulone C (denoted RGN 1518) as active ingredients, and the stabilities of the active ingredients in these compositions were evaluated.
# [3] = tested on: human epidermal keratinocytes; test: microarray analysis of differential gene expression in keratinocytes; conditions: for number of genes downregulated / number of genes upregulated: 24 h
# Procedure: (§2) Normal primary adult human keratinocytes derived from a donor were purchased from PromoCell (Heidelberg, Germany) and cultured in keratinocytes growth medium (Epilife+EDGS, Thermo Fisher Scientific, NY, USA). Keratinocytes cultures were maintained at 37° C. with 5% CO2 and ˜95% humidity.
# Normal primary human keratinocytes were seeded in 6-well plates and incubated for 24 h. Cells were then washed in PBS (Thermo Fisher Scientific) and reincubated for 24 more hours in the presence of RGN1518 and RGN1538 (each at two different concentrations), vehicle control, or positive control. Following treatment, the cells were washed with PBS, collected and stored frozen at −80° C. before RNA extraction.
# RNA was extracted using a Qiagen RNeasy kit (Qiagen, CA, USA) according to manufacturer's protocol.
# 18 vials containing RNA isolated from human epidermal keratinocytes and 18 vials containing RNA isolated from human fibroblasts were shipped to Thermo Fisher Scientific, Advanced BioMedical Laboratories (Cinnaminson, N.J.) on dry ice for Affymetrix Human Clariom D array processing.
# The differential gene expression was obtained using a threshold of 0.05 for statistical significance (p-value) and a log fold change of expression with absolute value of at least 1. Gene expression was further analysed using Differential Expression Analysis and Pathway Analysis iPathwayGuide) by Advaita Bioinformatics Services (Plymouth, Mich.) in the context of pathways obtained from the Kyoto Encyclopedia of Genes and Genomes (KEGG) database (Release 84.0+/10-26, October 17) (Kanehisa et al., 2000; Kanehisa et al., 2002), gene ontologies from the Gene Ontology Consortium database (2017 Nov. 6) (Ashburner et al., 2000; Gene Ontology Consortium, 2001), miRNAs from the miRBase (Release 21) and […] (Targetscan version:Mouse:7.1, Human:7.1) databases (Agarwal et al., 2015; Nam et al., 2014; Griffiths-Jones et al., 2008; Kozomara and Griffiths-Jones, 2014; Friedman et al., 2009; Grimson et al., 2007), and diseases from the KEGG database (Release 84.0+/10-26, October 17) (Kanehisa et al., 2000; Kanehisa et al., 2002). All references are available in the reports for bioinformatics analysis of differential gene expression provided by Advaita Bioinformatics Services at the following link.
# [4] = tested on: primary human keratinocytes; test: cytotoxicity assay (Cell Titer96 Aqueous One) on keratinocytes; format: cell-based; conditions: 24 h
# Procedure: as §2, §1
# The cytotoxicity assay on primary human keratinocytes from adult donor was performed after 24 h of culture in the presence of different concentrations of each compound, as indicated in FIG. 2A and Table 1.
# human fibroblasts = test: microarray analysis of differential gene expression in fibroblasts; format: cell-based
# [5] = concentration of 50 (unit not given), 24 h
# [6] = wound healing gene, fibroblasts, 24 h
substance,measurement,setting,value
myrtucommulone C,Avg (% of untreated),[1]; 6.2 μM,97%
same,Avg (% of untreated),[1]; 12.4 μM,94%
same,Avg (% of untreated),[1]; 24.8 μM,90%
same,Avg (% of untreated),[1]; 50 μM,88%
same,Avg (% of untreated),[1]; 100 μM,74%
same,Avg (% of untreated),[1]; 200 μM,72%
same,Avg (% of untreated),[1]; 400 μM,54%
same,concentrations that showed no cytotoxicity,[1]; unit not given,up to 50
same,acceptable degradation of active compound (20% or 80% of original),[2],met this criteria
same,expression of DNAJB9,[3],upregulated
same,"expression of cell cycle genes PKMYT1, MYC",[3],upregulated
same,number of genes downregulated,[3]; 1.6 μM,1196 genes
same,number of genes upregulated,[3]; 1.6 μM,492 genes
same,number of genes downregulated,"[3]; 3.1 μM, of 24905 genes",1294 genes
same,number of genes upregulated,"[3]; 3.1 μM, of 24905 genes",693 genes
same,expression of cell cycle genes,"[3]; CDK1, PLK1, RB1, CDC25C, CDC25B, MAD2L1, CDKN2B, CCNA2, MAD1L1, TTK, ZBTB17, RBL1, CCNB1, CCNB2, BUB1, CDC20, PTTG1, BUB1B",downregulated
same,expression of genes maintaining structure and activity of the Golgi apparatus,"[3]; COG6, ARFGAP3, IFT20, MGAT4",upregulated
same,expression of genes important for normal differentiation and function of skin,"[3]; FGF2, VEGFA, SERPINB1, CDH4, GDF15",upregulated
same,expression of genes involved in Metabolic Pathways,"[3]; GK, FA2H, ASS1, ACSS2, HK2, PHGDH, CYP1A1, CSGALNACT2",upregulated
same,expression of genes associated with inflammation,"[3]; IL1A, IL6, IL1R2, IL1RL1, IL2RG, TSC22D3",upregulated
same,expression of genes involved in Metabolic Pathways,"[3]; MTHFD1, CYP2J2, RRM2, TYMS",downregulated
same,Avg (% of untreated),[4]; 6.2 μM,80%
same,Avg (% of untreated),[4]; 12.4 μM,44%
same,Avg (% of untreated),[4]; 24.8 μM,43%
same,Avg (% of untreated),[4]; 50 μM,47%
same,Avg (% of untreated),[4]; 100 μM,43%
same,Avg (% of untreated),[4]; 200 μM,54%
same,Avg (% of untreated),[4]; 400 μM,51%
same,concentrations that showed no cytotoxicity,[4]; unit not given,up to 6.2
same,"vascular wound healing, spreading of epidermal cells and vasculature development (gene profile)",human fibroblasts,activation
same,number of genes downregulated,"human fibroblasts; 25 μM, 24 h, of 24905 genes",430 genes
same,number of genes upregulated,"human fibroblasts; 25 μM, 24 h, of 24905 genes",986 genes
same,number of genes downregulated,"human fibroblasts; 62 μM, 24 h",76 genes
same,number of genes upregulated,"human fibroblasts; 62 μM, 24 h",53 genes
same,gene expression of common skin targets,"human fibroblasts; CRELD1, NGF, GLRX2, CSGALNACT2, VEGFA, ITGA2, PPARG, EPGN",upregulated
same,number of genes involved in wound healing downregulated,human fibroblasts; at both doses,24 genes
same,number of genes involved in wound healing upregulated,human fibroblasts; at both doses,28 genes
same,"hair cycle, hair follicle morphogenesis and development (biological processes)",human fibroblasts; both concentrations,affected
same,number of genes downregulated,human fibroblasts; [5],468 genes
same,number of genes upregulated,human fibroblasts; [5],821 genes
same,Log Fc ACTB,human fibroblasts; [6],−1.055
same,Log Fc ADAM17,human fibroblasts; [6],1.323
same,Log Fc AJUBA,human fibroblasts; [6],−1.145
same,Log Fc CARMIL1,human fibroblasts; [6],−1.177
same,Log Fc DGKE,human fibroblasts; [6],1.432
same,Log Fc EDN1,human fibroblasts; [6],−1.404
same,Log Fc EREG,human fibroblasts; [6],2.169
same,Log Fc F2RL2,human fibroblasts; [6],1.038
same,Log Fc F3,human fibroblasts; [6],−1.039
same,Log Fc FGF10,human fibroblasts; [6],−1.313
same,Log Fc FGFR1OP2,human fibroblasts; [6],1.213
same,Log Fc GATA6,human fibroblasts; [6],−1.081
same,Log Fc GSN,human fibroblasts; [6],−1.041
same,Log Fc HBEGF,human fibroblasts; [6],1.225
same,Log Fc HIST1H3G,human fibroblasts; [6],−2.339
same,Log Fc HIST2H3A,human fibroblasts; [6],−1.285
same,Log Fc HMOX1,human fibroblasts; [6],1.346
same,Log Fc IFRD1,human fibroblasts; [6],1.072
same,Log Fc IL6,human fibroblasts; [6],2.578
same,Log Fc IL24,human fibroblasts; [6],1.179
same,Log Fc IRF1,human fibroblasts; [6],1.27
same,Log Fc ITGA2,human fibroblasts; [6],2.425
same,Log Fc ITGB3,human fibroblasts; [6],2.051
same,Log Fc ITPR1,human fibroblasts; [6],1.812
same,Log Fc LBH,human fibroblasts; [6],−1.524
same,Log Fc MAFK,human fibroblasts; [6],1.267
same,Log Fc MERTK,human fibroblasts; [6],1.107
same,Log Fc MIR199A1,human fibroblasts; [6],2.142
same,Log Fc MIR221,human fibroblasts; [6],1.648
same,Log Fc MYLK,human fibroblasts; [6],−1.62
same,Log Fc NDNF,human fibroblasts; [6],1.132
same,Log Fc NOV,human fibroblasts; [6],−1.524
same,Log Fc PDGFD,human fibroblasts; [6],−1.782
same,Log Fc PDPN,human fibroblasts; [6],1.265
same,Log Fc PLAUR,human fibroblasts; [6],1.077
same,Log Fc PLET1,human fibroblasts; [6],1.412
same,Log Fc PLPP3,human fibroblasts; [6],−1.23
same,Log Fc RAB27A,human fibroblasts; [6],1.228
same,Log Fc SMAD3,human fibroblasts; [6],−1.102
same,Log Fc SYT7,human fibroblasts; [6],1.079
same,Log Fc TFPI2,human fibroblasts; [6],2.549
same,Log Fc TGFBR2,human fibroblasts; [6],−1.067
same,Log Fc THBD,human fibroblasts; [6],4.119
same,Log Fc THBS1,human fibroblasts; [6],−1.287
same,Log Fc TLN1,human fibroblasts; [6],−1.13
same,Log Fc TMEFF2,human fibroblasts; [6],−1.526
same,Log Fc TNFAIP3,human fibroblasts; [6],2.328
same,Log Fc TPM1,human fibroblasts; [6],−1.209
same,Log Fc TRPC6,human fibroblasts; [6],−2.444
same,Log Fc UBASH3B,human fibroblasts; [6],1.546
same,Log Fc WNT5A,human fibroblasts; [6],−1.732
